Measured values as given in patent US20120244196A1, “PHARMACEUTICAL COMPOSITION CONTAINING MEDICAMENT-CONTAINING FINE PARTICLES AND METHOD FOR PRODUCING SAME” (NITTO DENKO CORPORATION, priority 2009, published 2012).
Values joined by “and” are separate entries in the source; they are usually repeats but may differ in a detail not shown here. Identical values can stand only once.

Tests used:
[1] = tested on: antibody against OVA in the serum; test: mouse immunity experiment, humoral immunity level (ELISA); type: in vivo, mouse (C57BL/6 lineage); conditions: 200 μL intradermal, 62.5 μg/ml egg albumin, 3 injections at one week interval, one week after final injection, N = 2
Method: (§1) 200 μL of small particles of Example 10 (egg albumin concentration 62.5 μg/ml, pH 6.5) or egg albumin solution (egg albumin concentration 62.5 μg/ml, pH 6.5) was intradermally injected to the back of mouse (C57BL/6 lineage). Injection at one week interval was repeated twice, totaling 3 injections. One week after final injection, the humoral immunity level and cellular immunity level of the mouse were evaluated. The humoral immunity level was evaluated by measuring the amount of antibody against OVA in the serum based on the absorbance by ELISA method. The cellular immunity level was evaluated by stimulating the isolated spleen cells with OVA peptide, counting the spot number of the ELISPOT method, and measuring the secreted amount of IFN-y.

[2] = tested on: isolated spleen cells stimulated with OVA peptide; test: mouse immunity experiment, cellular immunity level (ELISPOT); type: in vivo, mouse (C57BL/6 lineage); conditions: 200 μL intradermal, 62.5 μg/ml egg albumin, 3 injections at one week interval, one week after final injection, N = 2
Method: as §1

Substance: OVA solution: egg albumin solution (egg albumin concentration 62.5 μg/ml, pH 6.5), control in mouse immunity experiment
- humoral immunity level of serum (absorbance at 450 nm by ELISA analysis), average [1]: 0.32
- humoral immunity level of serum (absorbance at 450 nm by ELISA analysis), individual mice [1]: 0.23 and 0.40
- cellular immunity level of spleen cell (SPOT number of ELISPOT analysis), average [2]: 62
- cellular immunity level of spleen cell (SPOT number of ELISPOT analysis), individual mice [2]: 77 and 46
